Numbers after ± are expanded uncertainties.
Experiment: mn = molality of the nth substance listed, in mol/kg
Details: 100 kPa, Liquid; for speed of sound: Frequency=3 MHz, Single path-length method; for mass density: Vibrating tube method

C[N+](C)(C)C[C@H](O)CC(=O)[O-] [(R)-3-hydroxy-4-(trimethylammonio)butanoate] + O
Details | mass density [kg/m3] | speed of sound [m/s]
293.15 K, m1 = 0.0937 | 1001.09 ± 0.32 | 1492.4 ± 2
293.15 K, m1 = 0.1233 | 1001.98 ± 0.34 | 1495.2 ± 2.1
293.15 K, m1 = 0.1554 | 1002.94 ± 0.35 | 1498.3 ± 2.1
293.15 K, m1 = 0.1924 | 1004.04 ± 0.38 | 1501.8 ± 2.1
293.15 K, m1 = 0.2249 | 1004.99 ± 0.4 | 1504.9 ± 2.2
293.15 K, m1 = 0.2574 | 1005.94 ± 0.43 | 1507.9 ± 2.2
293.15 K, m1 = 0.276 | 1006.48 ± 0.44 | 1509.7 ± 2.3
293.15 K, m1 = 0.3064 | 1007.35 ± 0.46 | 1512.5 ± 2.3
298.15 K, m1 = 0.0497 | 998.57 ± 0.31 | 1502.3 ± 2
298.15 K, m1 = 0.0994 | 1000.06 ± 0.32 | 1506.9 ± 2
298.15 K, m1 = 0.1214 | 1000.71 ± 0.33 | 1508.9 ± 2.1
298.15 K, m1 = 0.1509 | 1001.58 ± 0.35 | 1511.6 ± 2.1
298.15 K, m1 = 0.2007 | 1003.03 ± 0.38 | 1516.1 ± 2.1
298.15 K, m1 = 0.2203 | 1003.6 ± 0.4 | 1517.8 ± 2.2
298.15 K, m1 = 0.2572 | 1004.66 ± 0.42 | 1521.2 ± 2.2
298.15 K, m1 = 0.3012 | 1005.91 ± 0.44 | 1525.1 ± 2.2
303.15 K, m1 = 0.0477 | 997.1 ± 0.31 | 1514.3 ± 2
303.15 K, m1 = 0.1029 | 998.75 ± 0.33 | 1519.2 ± 2
303.15 K, m1 = 0.1227 | 999.33 ± 0.34 | 1521 ± 2.1
303.15 K, m1 = 0.1531 | 1000.21 ± 0.35 | 1523.6 ± 2.1
303.15 K, m1 = 0.2046 | 1001.71 ± 0.41 | 1528.1 ± 2.3
303.15 K, m1 = 0.2174 | 1002.07 ± 0.39 | 1529.2 ± 2.2
303.15 K, m1 = 0.255 | 1003.14 ± 0.42 | 1532.4 ± 2.2
303.15 K, m1 = 0.3041 | 1004.51 ± 0.44 | 1536.7 ± 2.2
308.15 K, m1 = 0.0512 | 995.58 ± 0.31 | 1525.2 ± 2
308.15 K, m1 = 0.0938 | 996.84 ± 0.32 | 1528.8 ± 2
308.15 K, m1 = 0.1229 | 997.69 ± 0.33 | 1531.2 ± 2
308.15 K, m1 = 0.1447 | 998.32 ± 0.35 | 1533.1 ± 2.1
308.15 K, m1 = 0.1952 | 999.78 ± 0.37 | 1537.3 ± 2.1
308.15 K, m1 = 0.2238 | 1000.59 ± 0.39 | 1539.7 ± 2.1
308.15 K, m1 = 0.2282 | 1000.71 ± 0.39 | 1540.1 ± 2.1
308.15 K, m1 = 0.304 | 1002.84 ± 0.45 | 1546.4 ± 2.2
313.15 K, m1 = 0.0519 | 993.75 ± 0.31 | 1534.1 ± 2
313.15 K, m1 = 0.1012 | 995.21 ± 0.33 | 1538.2 ± 2
313.15 K, m1 = 0.1204 | 995.77 ± 0.33 | 1539.7 ± 2
313.15 K, m1 = 0.1428 | 996.42 ± 0.34 | 1541.5 ± 2.1
313.15 K, m1 = 0.1922 | 997.84 ± 0.37 | 1545.5 ± 2.1
313.15 K, m1 = 0.2107 | 998.36 ± 0.38 | 1547 ± 2.1
313.15 K, m1 = 0.2436 | 999.29 ± 0.41 | 1549.7 ± 2.2
313.15 K, m1 = 0.3053 | 1001 ± 0.45 | 1554.7 ± 2.2

O=C[C@H](O)[C@@H](O)[C@H](O)[C@H](O)CO [D-glucose] + O
298.15 K
Details | mass density [kg/m3] | speed of sound [m/s]
m1 = 0.153 | – | 1507.3 ± 2.1
m1 = 1.13 | 1064.98 ± 2.7 | 1565.3 ± 2.1

[Cl-].[Na+] [sodium chloride] + O
298.15 K
Details | mass density [kg/m3] | speed of sound [m/s]
m1 = 0.151 | 1003.43 ± 0.31 | 1507.5 ± 2
m1 = 1.021 | 1037.99 ± 0.52 | 1560.5 ± 2

C[N+](C)(C)[O-] [trimethylamine oxide] + O
m1 = 1.08
Details | mass density [kg/m3] | speed of sound [m/s]
293.15 K | 1000.9 ± 0.38 | 1564.8 ± 2.3
298.15 K | 999.7 ± 0.38 | 1575.7 ± 2.3
303.15 K | 998.26 ± 0.38 | 1584.2 ± 2.3
308.15 K | 996.53 ± 0.38 | 1589.4 ± 2.3
313.15 K | 994.81 ± 0.38 | 1595.5 ± 2.3

O [water] + C[N+](C)(C)C[C@H](O)CC(=O)[O-]
m2 = 0
Details | speed of sound [m/s]
298.15 K | 1497.7 ± 2
308.15 K | 1520.7 ± 2

O [water] + C[N+](C)(C)[O-]
m2 = 0
Details | speed of sound [m/s]
298.15 K | 1497.7 ± 2
308.15 K | 1520.7 ± 2

O [water] + O=C[C@H](O)[C@@H](O)[C@H](O)[C@H](O)CO
Details | speed of sound [m/s]
298.15 K, m2 = 0 | 1497.7 ± 2

O [water] + [Cl-].[Na+]
Details | speed of sound [m/s]
298.15 K, m2 = 0 | 1497.7 ± 2

From the NIST ThermoML archive (doi:10.1016/j.jct.2018.01.021)
